We go through three compounds from patent publication US8436155B2, “7,2″-dehydrate puerarin and its salts, preparation method and use thereof” (Shandong University, priority 2010, dated 2013).

pIC50: −log10 of the molar value.

The subject of one assay is rabbit blood coagulation. Nature of the assay: Anticoagulation experiment in vitro: coagulation time of oxalated rabbit blood after adding CaCl2. The settings on record: 37±0.5° C., x ± SD. On the procedure: 1. Method: A rabbit was weighed and injected with 3% sodium pentobarbital 1 mL/kg via an ear vein, and then anaesthetized. […] The resulting solution was shaken uniformly and put into a constant temperature water bath (37±0.5° C.). Every 30 seconds, the small test tubes were tilted slightly once, and the coagulation time was recorded (the test tubes were tilted slightly, if no blood bled, the time was recorded as coagulation time). The experimental results were collected and analyzed using Software SPSS. If P<0.05, the results has significant difference.

The subject of the next assay is rat arrhythmias. Nature of the assay: Antiarrhythmic experiment: arrhythmia induced by 0.1% BaCl2 in rats, ECG monitored for 30 min. Type of assay: in vivo, Wistar rats. To be noted: for Arrhythmia duration: if not restored within 30 min, the record was 30 min. On the procedure: 1. Method: 60 male, healthy adult Wistar rats with body weight of 180-220 g were randomly divided into 6 groups, i.e., a normal saline group, a propylene glycol solvent gavage group, a propylene glycol solvent intravenous injection group, a puerarin injection group, a 7,2″-dehydrate puerarin gavage group, and a 7,2″-dehydrate puerarin intravenous injection group, with 10 rats each group. The intravenous injection was carried out one time a day for three consecutive days. The gavage was carried out two times a day for three consecutive days. The normal saline group was administered with equal volume of 0.9% NaCl injection. The dose of the propylene glycol solvent gavage group was 14.3% propylene glycol 1 mL/100 g. The dose of the propylene glycol solvent intravenous injection group was 40% propylene glycol 0.5 mL/100 g. The dose of the puerarin injection group was 50 mg/kg. The dose of the 7,2″-dehydrate puerarin gavage group was 60 mg/kg. The dose of the 7,2″-dehydrate puerarin intravenous injection group was 30 mg/kg. The rats were anesthetized with 10% chloral hydrate (0.35 mL/100 g) by intraperitoneal injection and fixed in the back. A BL-410 biological functional system was introduced to monitor the ECG changes of the rats. A femoral vein of the rats was exposed, a scalp needle inserted, and a constant speed syringe pump connected. 0.1% BaCl2 was pumped with a dose of 0.1 mL/100 g and a speed of 0.6 mL/min. From the injection of BaCl2 on, the ECGs were monitored and recorded within 30 min. The arrhythmia latency and arrhythmia duration were recorded (if not restored within 30 min, the record was 30 min). The experimental results were collected and analyzed using Software SPSS. If P<0.05, the results has significant difference.

The subject of another assay is platelet aggregation. To be noted: in vitro, dose-dependent; read-out: IC50, inhibition on platelet aggregation in vitro; cited from earlier work.

`O=c1c(-c2ccc(O)cc2)coc2c3c(ccc12)O[C@@H]1[C@@H](O)[C@H](O)[C@@H](CO)O[C@@H]31` [7,2″-dehydrate puerarin]: the coagulation time in the assay with rabbit blood coagulation (0.75 mg/mL (low dose)) was 14.7 ± 1.6 min; in the assay with rabbit blood coagulation (1.5 mg/mL (medium dose)), 22.7 ± 2.6 min; with rabbit blood coagulation (3 mg/mL), 38.5 ± 2.1 min. The Arrhythmia latency with rat arrhythmias (gavage, 60 mg/kg, two times a day for three days, x ± SD) amounted to 29.25 ± 5.12 s; in the assay with rat arrhythmias (intravenous injection, 30 mg/kg, once a day for three days, x ± SD), 47.25 ± 19.87 s. Besides, the Arrhythmia duration turned out to be 2.09 ± 0.98 min with rat arrhythmias (gavage, 60 mg/kg, x ± SD) and 17.75 ± 4.61 min in the assay with rat arrhythmias (intravenous injection, 30 mg/kg, x ± SD).

For `CC(=O)Oc1ccccc1C(=O)Oc1ccc2c(=O)c(-c3ccc(O)cc3)coc2c1[C@@H]1O[C@H](CO)[C@@H](O)[C@H](O)[C@H]1O` [7-acetylsalicylic acyl puerarin], the pIC50 (in general, −log10 of the IC50, conventionally taken in molar units) in the assay on platelet aggregation was 3.04.

As for `O=c1c(-c2ccc(O)cc2)coc2c([C@@H]3O[C@H](CO)[C@@H](O)[C@H](O)[C@H]3O)c(O)ccc12` [Puerarin], in the assay with rabbit blood coagulation (3 mg/mL), the coagulation time stood at 15.3 ± 2.4 min. In the assay with rat arrhythmias (puerarin injection group, 50 mg/kg), the Arrhythmia duration was found to be 30 min. In the assay with rat arrhythmias (puerarin injection group, 50 mg/kg, once a day for three days, x ± SD), this compound registered an Arrhythmia latency of 86.75 ± 42.55 s.
